Assay results as given in publication PMC12573178, “Substrate-Guided Development of HDAC11-Selective Inhibitors Featuring α‑Amino Amide Zinc-Binding Groups” (ACS Omega, 2025).
pIC50: −log10 of the molar value.

Biological target: T1, SIRT2 (Homo sapiens, UniProt Q8IXJ6)
T1 sequence (Q8IXJ6 1-389): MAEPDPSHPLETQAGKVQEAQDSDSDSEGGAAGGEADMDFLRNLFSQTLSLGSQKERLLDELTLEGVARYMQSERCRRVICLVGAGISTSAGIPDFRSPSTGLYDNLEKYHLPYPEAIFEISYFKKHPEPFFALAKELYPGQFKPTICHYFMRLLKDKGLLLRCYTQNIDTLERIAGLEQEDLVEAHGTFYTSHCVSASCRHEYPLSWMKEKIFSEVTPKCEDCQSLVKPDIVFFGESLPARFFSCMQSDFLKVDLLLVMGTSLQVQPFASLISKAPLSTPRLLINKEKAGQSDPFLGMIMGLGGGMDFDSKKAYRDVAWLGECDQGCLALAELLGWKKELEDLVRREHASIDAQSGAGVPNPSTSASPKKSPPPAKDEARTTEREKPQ
Assay: SIRT2 inhibition assays (continuous / discontinuous demyristoylation)
Type: biochemical
Procedure: Inhibition of the enzymatic activity of HDACs was performed continuously for HDAC8, HDAC11, and SIRT2 and discontinuously for SIRT2, 3, and 6 using adequate substrates as described previously. , Experimental details are given in the Supporting Information.
A. HDAC and SIRT deacylase activity assays
Continuous in vitro HDAC inhibition assays
The inhibitors were tested using 384-well plates (GreinerONe). After 5 min of incubation of the inhibitors together with the respective enzymes (HDAC8 = 2 nM, HDAC11 = 20 nM, SIRT2 = 1 nM), the reactions were always started by the addition of substrate for the Zn2+-dependent HDAC and by the addition of NAD+ for SIRT2. […]
The fluorescence increase was followed for 1 h with two reads per min using a PerkinElmer Envision 2104 multilabel plate reader. […] The measured values were normalized accordingly. […] The data were fitted using the GraphPad Prism8 software and kinetic values calculated through non-linear regression analysis. […]
Reactions were stopped after 20 min by adding a constant volume of reaction mixture to stop solution (5 % acetonitrile (ACN) (v/v) and 1 % trifluoroacetic acid (TFA) (v/v) in dd. H 2O). The samples were analysed using HPLC-UV/VIS at λ Abs = 220 nm, λ Ex = 320 nm und λ Em = 420 nm. […]
100 nM, SIRT3: 200 nM, SIRT6: 500 nM). […] The samples were analysed using HPLC-UV/VIS at λ Abs = 360 nm. […]

pIC50: < 4.70
inhibition at 50 µM (50 μM 31): 41.5%
Structure (SMILES): CCCCCCCCCCCCSC[C@@H](N)C(=O)NCCCC[C@@H]1NC(=O)[C@H](CCC(N)=O)NC1=O [Compound 31]
